Assay results published in patent publication US20230117470A1, “SUBSTITUTED PYRAZOLE COMPOUNDS AS TOLL RECEPTOR INHIBITORS” (BRISTOL-MYERS SQUIBB COMPANY, priority 2019, published 2023).

Key:
Format in all cases: cell-based
[1] = biological target: T1, human TLR7 (Homo sapiens, UniProt Q9NYK1); assay: TLR7 inhibition reporter assay (HEK-Blue cells, SEAP reporter, gardiquimod stimulation); conditions: HEK-Blue cells overexpressing human TLR7, SEAP reporter, gardiquimod 7.5 μM
T1 construct: host or cells: HEK-Blue cells
T1 sequence (Q9NYK1 27-1049): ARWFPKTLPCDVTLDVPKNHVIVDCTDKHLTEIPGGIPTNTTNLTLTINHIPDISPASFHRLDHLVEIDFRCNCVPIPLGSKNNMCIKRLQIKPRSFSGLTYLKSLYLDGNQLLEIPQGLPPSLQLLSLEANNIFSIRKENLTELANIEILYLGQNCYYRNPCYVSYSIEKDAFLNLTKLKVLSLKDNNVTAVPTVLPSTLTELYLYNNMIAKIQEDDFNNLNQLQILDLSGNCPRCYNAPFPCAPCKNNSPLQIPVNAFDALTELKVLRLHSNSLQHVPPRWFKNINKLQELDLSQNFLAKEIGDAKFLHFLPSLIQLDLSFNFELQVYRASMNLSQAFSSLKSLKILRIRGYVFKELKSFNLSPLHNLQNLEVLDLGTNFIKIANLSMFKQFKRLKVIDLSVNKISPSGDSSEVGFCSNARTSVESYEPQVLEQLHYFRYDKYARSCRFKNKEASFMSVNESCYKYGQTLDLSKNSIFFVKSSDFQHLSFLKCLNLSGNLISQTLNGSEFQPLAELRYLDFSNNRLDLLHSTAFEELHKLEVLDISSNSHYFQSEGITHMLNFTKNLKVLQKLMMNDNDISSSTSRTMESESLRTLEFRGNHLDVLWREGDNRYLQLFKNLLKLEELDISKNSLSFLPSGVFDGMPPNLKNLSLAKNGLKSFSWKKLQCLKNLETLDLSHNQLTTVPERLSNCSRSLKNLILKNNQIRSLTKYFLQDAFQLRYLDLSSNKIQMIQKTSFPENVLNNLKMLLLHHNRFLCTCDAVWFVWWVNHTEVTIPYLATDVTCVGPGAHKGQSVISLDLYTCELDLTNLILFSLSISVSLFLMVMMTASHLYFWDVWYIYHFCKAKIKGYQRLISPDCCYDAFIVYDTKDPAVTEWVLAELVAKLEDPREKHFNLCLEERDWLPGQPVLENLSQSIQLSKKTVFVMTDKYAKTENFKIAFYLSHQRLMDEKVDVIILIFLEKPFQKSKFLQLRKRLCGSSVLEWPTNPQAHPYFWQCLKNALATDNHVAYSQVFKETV
How it was run: (§1)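 30 min RT cpd pre-incubation (0.05 nM–50 μM final dose response) → agonist: gardiquimod 7.5 μM / R848 15.9 μM / ODN2006 5 nM for TLR7/8/9 resp. → 22 h, 37° C → SEAP via detection medium. % inhibition vs agonist+DMSO and reference inhibitor controls.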

[2] = biological target: T2, human TLR9 (Homo sapiens, UniProt Q9NR96); assay: TLR9 inhibition reporter assay (HEK-Blue cells, SEAP reporter, ODN2006 stimulation); conditions: HEK-Blue cells overexpressing human TLR9, SEAP reporter, ODN2006 5 nM
T2 construct: host or cells: HEK-Blue cells
T2 sequence (Q9NR96 26-1032): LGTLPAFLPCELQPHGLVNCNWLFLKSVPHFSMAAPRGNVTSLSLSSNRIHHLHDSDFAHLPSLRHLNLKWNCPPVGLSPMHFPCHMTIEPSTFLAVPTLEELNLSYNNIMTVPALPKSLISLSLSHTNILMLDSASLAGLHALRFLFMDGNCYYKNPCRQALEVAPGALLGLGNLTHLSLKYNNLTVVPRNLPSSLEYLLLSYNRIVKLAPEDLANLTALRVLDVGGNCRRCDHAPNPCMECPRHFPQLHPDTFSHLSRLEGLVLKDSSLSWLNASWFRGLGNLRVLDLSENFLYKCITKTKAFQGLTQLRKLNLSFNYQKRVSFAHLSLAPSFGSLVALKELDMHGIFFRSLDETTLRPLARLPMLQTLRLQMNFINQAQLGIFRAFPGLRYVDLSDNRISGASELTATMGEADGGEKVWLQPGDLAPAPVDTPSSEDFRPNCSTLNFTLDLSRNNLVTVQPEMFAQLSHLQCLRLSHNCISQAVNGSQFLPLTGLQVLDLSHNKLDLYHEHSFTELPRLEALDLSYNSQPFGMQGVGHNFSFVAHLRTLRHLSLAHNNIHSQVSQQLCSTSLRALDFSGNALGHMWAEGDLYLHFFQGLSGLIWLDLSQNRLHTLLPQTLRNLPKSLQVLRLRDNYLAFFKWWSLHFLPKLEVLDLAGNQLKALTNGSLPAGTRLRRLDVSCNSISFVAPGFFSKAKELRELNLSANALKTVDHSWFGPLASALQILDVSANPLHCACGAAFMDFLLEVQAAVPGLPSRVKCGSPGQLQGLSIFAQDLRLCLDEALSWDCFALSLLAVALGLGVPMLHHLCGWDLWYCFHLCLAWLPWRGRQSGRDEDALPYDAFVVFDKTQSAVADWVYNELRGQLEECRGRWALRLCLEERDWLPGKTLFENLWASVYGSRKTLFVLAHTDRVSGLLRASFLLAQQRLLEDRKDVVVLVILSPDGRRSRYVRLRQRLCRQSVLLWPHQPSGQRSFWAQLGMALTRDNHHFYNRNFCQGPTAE
How it was run: as §1

[3] = biological target: T3, human TLR8 (Homo sapiens, UniProt Q9NR97); assay: TLR8 inhibition reporter assay (HEK-Blue cells, SEAP reporter, R848 stimulation); conditions: HEK-Blue cells overexpressing human TLR8, SEAP reporter, R848 15.9 μM
T3 construct: host or cells: HEK-Blue cells
T3 sequence (Q9NR97 27-1041): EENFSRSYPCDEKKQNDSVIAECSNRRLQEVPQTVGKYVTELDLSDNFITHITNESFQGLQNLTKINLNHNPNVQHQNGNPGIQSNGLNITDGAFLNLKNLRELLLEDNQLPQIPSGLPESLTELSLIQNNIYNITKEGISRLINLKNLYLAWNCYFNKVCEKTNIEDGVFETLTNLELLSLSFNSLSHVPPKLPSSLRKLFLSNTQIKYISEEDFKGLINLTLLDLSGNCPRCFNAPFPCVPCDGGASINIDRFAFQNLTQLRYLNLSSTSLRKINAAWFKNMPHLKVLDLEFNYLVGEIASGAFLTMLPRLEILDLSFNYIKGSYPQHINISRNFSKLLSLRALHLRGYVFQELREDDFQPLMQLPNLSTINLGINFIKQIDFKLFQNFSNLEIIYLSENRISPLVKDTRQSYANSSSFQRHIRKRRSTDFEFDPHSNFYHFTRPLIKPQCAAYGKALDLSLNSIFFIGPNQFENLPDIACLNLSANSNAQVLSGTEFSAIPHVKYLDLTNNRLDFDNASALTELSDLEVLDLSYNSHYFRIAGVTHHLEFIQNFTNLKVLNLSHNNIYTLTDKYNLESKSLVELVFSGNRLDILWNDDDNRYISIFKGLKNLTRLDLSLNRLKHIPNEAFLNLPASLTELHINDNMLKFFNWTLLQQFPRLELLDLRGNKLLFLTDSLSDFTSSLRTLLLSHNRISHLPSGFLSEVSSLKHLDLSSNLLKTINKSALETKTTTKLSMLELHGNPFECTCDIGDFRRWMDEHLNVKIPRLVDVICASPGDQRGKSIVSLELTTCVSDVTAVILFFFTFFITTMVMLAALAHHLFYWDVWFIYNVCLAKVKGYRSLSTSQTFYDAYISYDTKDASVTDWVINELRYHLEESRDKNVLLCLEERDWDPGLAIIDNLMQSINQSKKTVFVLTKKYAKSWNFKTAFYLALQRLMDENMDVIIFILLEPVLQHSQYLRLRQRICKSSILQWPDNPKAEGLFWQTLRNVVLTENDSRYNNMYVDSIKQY
How it was run: as §1

Structure (SMILES)	IC50 [1] [nM]	IC50 [2] [nM]	IC50 [3] [nM]
CCc1c(C(=O)NC2CCN(C)CC2)n[nH]c1-c1cc(C)c2ncnn2c1 [Example 181, 4-ethyl-5-(8-methyl-[1,2,4]triazolo[1,5-a]pyridin-6-yl)-N-(1-methylpiperidin-4-yl)-1H-pyrazole-3-carboxamide]	9.92	5660	36
Cc1cc(-c2[nH]nc(C(=O)N[C@H]3CC[C@@H](N)CC3)c2C(C)C)cn2ncnc12 [Example 63]	24.8	> 50000	14.6
Cc1cc(-c2[nH]nc(C(=O)NC3CCCNC3)c2C(C)C)cn2ncnc12 (stereo not drawn) [Example 66]	3.59	5710	16.9
Cc1cc(-c2[nH]nc(-c3cnc(N(C)C)cn3)c2C(C)C)cn2ncnc12 [Example 236]	1.36	25400	18.7
Cc1cc(-c2[nH]nc(C(=O)NC3CCN(CC4CCOC4)CC3)c2C(C)C)cn2ncnc12 (stereo not drawn) [Example 72]	1.23	7220	4.75
COc1cc(-c2[nH]nc(-c3ccc(C4CN(C)C4)cc3)c2C(C)C)cn2ncnc12 [Example 328]	12.9	18800	12.8
Cc1cc(-c2[nH]nc(C(=O)NC3CCN(CC4CCOCC4)CC3)c2CC(F)(F)F)cn2ncnc12 [Example 204]	1.5	17800	0.63
Cc1cc(-c2[nH]nc(C(=O)NC3CCN(CC4CCOCC4)CC3)c2C(C)C)cn2ncnc12 [Example 77]	2.03	3270	21.5
COc1cc(-c2[nH]nc(-c3ccc(C4CCN(CC#N)CC4)cn3)c2C(C)C)cn2ncnc12 [Example 394]	154	> 50000	529
Cc1cc(-c2[nH]nc(C3CCC(NCC(F)F)CC3)c2C(C)C)cn2ncnc12 (single isomer, unassigned) [Example 279, N-(2,2-difluoroethyl)-4-(4-isopropyl-5-(8-methyl-[1,2,4]triazolo[1,5-a]pyridin-6-yl)-1H-pyrazol-3-yl)cyclohexan-1-amine]	11	23900	1.08
COCCN(C)C1CCC(NC(=O)c2n[nH]c(-c3cc(C)c4ncnn4c3)c2C(C)C)CC1 (stereo not drawn) [Example 128]	1.21	13400	8.29
Cc1cc(-c2[nH]nc(-c3ncc4c(n3)CCN(C(C)C)C4)c2C(C)C)cn2ncnc12 [Example 250]	46.8	43300	43.6
Cc1cc(-c2[nH]nc(C(=O)N[C@H]3CC[C@H](NCC4CCOC4)CC3)c2C(C)C)cn2ncnc12 (stereo partly drawn) [Example 105]	1.38	2180	43.2
Cc1cc(-c2[nH]nc(C3CCC(N4CCOCC4)CC3)c2C(C)C)cn2ncnc12 (single isomer, unassigned) [Example 291]	7.65	16800	0.39
Cc1cc(-c2[nH]nc(C(=O)N[C@H]3CC[C@H](NCC4(C)COC4)CC3)c2C(C)C)cn2ncnc12 [Example 149]	108	> 50000	98.5
Cc1cc(-c2[nH]nc(C(=O)NC3CCN(CC(C)(C)O)CC3)c2C(C)C)cn2ncnc12 [Example 138]	0.93	14800	3.96
Cc1cc(-c2[nH]nc(-c3cccc(NC(C)C)c3)c2C(C)C)cn2ncnc12 [Example 242]	47.1	> 50000	16.1
Cc1cc(-c2[nH]nc(C(=O)NC3CCN(C(C)C)CC3)c2CC(F)(F)F)cn2ncnc12 [Example 193]	1.97	7630	4.45
CCN1CCOC(CNC(=O)c2n[nH]c(-c3cc(C)c4ncnn4c3)c2C(C)C)C1 (stereo not drawn) [Example 140]	0.59	10400	0.89
Cc1cc(-c2[nH]nc(C(=O)N3CCC(N(C)C)CC3)c2C(C)C)cn2ncnc12 [Example 13]	5.04	3330	2.03
COc1cc(-c2[nH]nc(-c3nc4c(s3)CNCC4)c2C(C)C)cn2ncnc12 [Example 220]	1.4	> 50000	4.38
Cc1cc(-c2[nH]nc(C(=O)N[C@H]3CC[C@H](N)CC3)c2C(C)C)cn2ncnc12 [Example 46]	0.57	2500	0.11
Cc1cc(-c2[nH]nc(-c3cccc(N)c3)c2C(C)C)cn2ncnc12 [Example 232]	4.19	> 50000	7.87
CCN(C)C1CCC(c2n[nH]c(-c3cc(C)c4ncnn4c3)c2C(C)C)CC1 (single isomer, unassigned) [Example 282]	29.8	> 50000	5.33
Cc1cc(-c2[nH]nc(C(=O)N[C@H]3CC[C@@H](NCc4cncnc4)CC3)c2C(C)C)cn2ncnc12 [Example 102]	0.37	3890	14
